# Results reported in paper PMC7380166, “How to Study the Metabolism of New Psychoactive Substances for the Purpose of Toxicological Screenings—A Follow-Up Study Comparing Pooled Human Liver S9, HepaRG Cells, and Zebrafish Larvae” (Frontiers in Chemistry, 2020).
# How the values were obtained:
# [1] = target: T1, CYP1A2 (Homo sapiens, UniProt P05177); test: Monooxygenases activity screening, CYP1A2; type: in vitro ADME; set-up: key: +, detected; –: −, not detected; details: 25 μM 4F-MDMB-BINACA, 50 pmol/ml enzyme, 30 min, 37°C, duplicate
# T1 construct: purchased Corning; host or cells: baculovirus-transfected insect cell microsomes (Supersomes)
# T1 sequence (P05177 1-516): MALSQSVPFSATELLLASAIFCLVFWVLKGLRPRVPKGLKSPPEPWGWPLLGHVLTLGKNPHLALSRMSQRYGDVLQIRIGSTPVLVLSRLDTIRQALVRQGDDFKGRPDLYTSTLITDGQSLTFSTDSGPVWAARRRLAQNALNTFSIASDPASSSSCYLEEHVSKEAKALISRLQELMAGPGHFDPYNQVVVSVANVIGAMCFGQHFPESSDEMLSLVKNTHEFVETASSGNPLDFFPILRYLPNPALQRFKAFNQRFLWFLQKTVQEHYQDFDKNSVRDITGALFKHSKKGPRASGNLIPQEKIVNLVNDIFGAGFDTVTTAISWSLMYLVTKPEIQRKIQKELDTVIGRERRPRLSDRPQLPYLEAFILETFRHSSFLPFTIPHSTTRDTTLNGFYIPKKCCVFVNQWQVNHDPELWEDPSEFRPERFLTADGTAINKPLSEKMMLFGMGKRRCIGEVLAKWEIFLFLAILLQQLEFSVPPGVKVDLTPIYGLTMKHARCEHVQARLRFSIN
# Method: (§1) According to an established protocol (Wagmann et al., [2016]), the final volume per reaction tube was 50 μl with a final 4F-MDMB-BINACA concentration of 25 μM and enzyme concentrations of 50 pmol/ml for CYP1A2, CYP2A6, CYP2B6, CYP2C8, CYP2C9, CYP2C19, CYP2D6, CYP2E1, CYP3A4, and CYP3A5, respectively, or 0.25 mg protein/ml for FMO3. Furthermore, the reaction mixture contained 90 mM phosphate buffer (pH 7.4), superoxide dismutase (200 U/ml), isocitrate (5 mM), MgCl2 (5 mM), isocitrate dehydrogenase (0.5 U/ml), and NADP^+ (1.2 mM). The phosphate buffer was replaced with Tris buffer (90 mM) for incubations with CYP2A6 and CYP2C9 according to the manufacturer's recommendation. All incubations were performed at 37°C for 30 min and terminated by adding 50 μl of ice-cold acetonitrile. Afterwards, the mixtures were centrifuged at 18,407 × g for 5 min, 70 μl of the supernatants was transferred into autosampler vials, and 1 μl was injected onto the LC-HRMS/MS system. Positive control incubations were performed with pHLM (1 mg microsomal protein/ml), and negative controls without enzyme were prepared to identify non-metabolically formed compounds. All incubations were done in duplicate.
# [2] = target: T2, CYP2B6 (Homo sapiens, UniProt P20813); test: Monooxygenases activity screening, CYP2B6; type: in vitro ADME; set-up: key: +, detected; –: −, not detected; details: 25 μM 4F-MDMB-BINACA, 50 pmol/ml enzyme, 30 min, 37°C, duplicate
# T2 construct: purchased Corning; host or cells: baculovirus-transfected insect cell microsomes (Supersomes)
# T2 sequence (P20813 1-491): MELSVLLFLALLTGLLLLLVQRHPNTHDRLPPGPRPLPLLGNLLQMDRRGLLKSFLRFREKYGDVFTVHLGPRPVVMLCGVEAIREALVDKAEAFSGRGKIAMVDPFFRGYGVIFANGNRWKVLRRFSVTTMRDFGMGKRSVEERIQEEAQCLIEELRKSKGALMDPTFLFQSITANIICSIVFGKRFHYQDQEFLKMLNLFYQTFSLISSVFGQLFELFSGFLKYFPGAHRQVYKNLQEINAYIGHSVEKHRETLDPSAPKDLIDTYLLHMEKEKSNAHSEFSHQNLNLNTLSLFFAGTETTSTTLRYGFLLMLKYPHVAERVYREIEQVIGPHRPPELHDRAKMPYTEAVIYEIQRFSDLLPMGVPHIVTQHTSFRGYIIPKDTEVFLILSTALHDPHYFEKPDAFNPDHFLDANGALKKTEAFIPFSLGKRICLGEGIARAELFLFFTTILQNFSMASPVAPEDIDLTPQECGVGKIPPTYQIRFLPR
# Method: as §1
# [3] = target: T3, CYP2C19 (Homo sapiens, UniProt P33261); test: Monooxygenases activity screening, CYP2C19; type: in vitro ADME; set-up: key: +, detected; –: −, not detected; details: 25 μM 4F-MDMB-BINACA, 50 pmol/ml enzyme, 30 min, 37°C, duplicate
# T3 construct: purchased Corning; host or cells: baculovirus-transfected insect cell microsomes (Supersomes)
# T3 sequence (P33261 whole entry): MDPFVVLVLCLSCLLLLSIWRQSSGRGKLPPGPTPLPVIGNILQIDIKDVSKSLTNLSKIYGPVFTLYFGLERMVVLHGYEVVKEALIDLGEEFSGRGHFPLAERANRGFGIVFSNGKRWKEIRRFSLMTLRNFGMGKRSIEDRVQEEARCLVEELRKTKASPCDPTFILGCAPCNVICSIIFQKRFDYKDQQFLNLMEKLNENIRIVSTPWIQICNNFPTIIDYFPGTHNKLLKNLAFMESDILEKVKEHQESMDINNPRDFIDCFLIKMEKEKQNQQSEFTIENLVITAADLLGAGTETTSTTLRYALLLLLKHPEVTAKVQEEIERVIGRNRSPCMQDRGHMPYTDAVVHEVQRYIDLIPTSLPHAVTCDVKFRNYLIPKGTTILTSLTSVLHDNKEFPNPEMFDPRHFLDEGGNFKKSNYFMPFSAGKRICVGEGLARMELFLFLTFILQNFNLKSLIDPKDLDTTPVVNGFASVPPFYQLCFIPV
# Method: as §1
# [4] = target: T4, FMO3 (Homo sapiens, UniProt P31513); test: Monooxygenases activity screening, FMO3; type: in vitro ADME; set-up: key: +, detected; –: −, not detected; details: 25 μM 4F-MDMB-BINACA, 0.25 mg protein/ml, 30 min, 37°C, duplicate
# T4 construct: purchased Corning; host or cells: baculovirus-transfected insect cell microsomes (Supersomes)
# T4 sequence (P31513 1-532): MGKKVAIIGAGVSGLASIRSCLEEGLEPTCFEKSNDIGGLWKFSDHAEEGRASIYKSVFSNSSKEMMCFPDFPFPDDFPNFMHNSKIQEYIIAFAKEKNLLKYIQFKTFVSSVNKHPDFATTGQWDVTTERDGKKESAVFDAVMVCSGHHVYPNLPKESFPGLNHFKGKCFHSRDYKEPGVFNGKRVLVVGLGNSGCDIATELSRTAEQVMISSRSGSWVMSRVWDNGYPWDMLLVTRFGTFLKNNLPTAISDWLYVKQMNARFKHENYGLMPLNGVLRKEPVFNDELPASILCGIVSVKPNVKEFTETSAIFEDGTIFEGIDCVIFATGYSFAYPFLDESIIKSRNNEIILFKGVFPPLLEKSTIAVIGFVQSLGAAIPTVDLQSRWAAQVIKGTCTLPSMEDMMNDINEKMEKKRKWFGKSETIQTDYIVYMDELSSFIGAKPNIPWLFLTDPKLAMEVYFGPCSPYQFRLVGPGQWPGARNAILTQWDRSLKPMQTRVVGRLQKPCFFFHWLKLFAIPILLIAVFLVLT
# Method: as §1
# [5] = system: zebrafish larvae; test: Zebrafish larvae exposure, metabolite identification by LC-HRMS/MS; details: for Absolute peak area, Zebrafish larvae [25 μM]: 25 μM 4F-MDMB-BINACA in medium, larvae 4 dpf, larvae extract, one replicate of n = 3, n.d. = not detected
Compound,Detection of metabolite in incubation with CYP1A2 [1],Detection of metabolite in incubation with CYP2B6 [2],Detection of metabolite in incubation with CYP2C19 [3],Detection of metabolite in incubation with FMO3 [4],"Absolute peak area, Zebrafish larvae [25 μM] ([5]; 24 h)","Number of phase I metabolites detected, Zebrafish larvae ([5]; 25 μM in medium, 24 h)","Number of phase II metabolites detected, Zebrafish larvae ([5]; 25 μM in medium, 24 h)","Relative number of matches with the four most abundant signals in human plasma, Zebrafish larvae ([5]; plasma, larvae exposed to 25 μM) [%]","Relative number of matches with the four most abundant signals in human urine, Zebrafish larvae ([5]; urine, larvae exposed to 25 μM) [%]"
COC(=O)[C@@H](NC(=O)c1nn(CCCCF)c2ccccc12)C(C)(C)CO [MB16],–,–,–,–,5.98E+06,,,,
CC(C)(C)C(NC(=O)c1nn(CCCCF)c2ccccc12)C(=O)O (centres unmarked) [MB8],–,–,–,–,1.73E+07,,,,
O=C(O)c1nn(CCCCF)c2ccccc12 [MB1],–,–,–,–,,,,,
COC(=O)[C@@H](NC(=O)c1nn(CCCCO)c2ccccc12)C(C)(C)C [MB11],–,–,–,–,2.92E+06,,,,
"COC(=O)C(NC(=O)c1nn(CCCCF)c2ccccc12)C(C)(C)C (centres unmarked) [4F-MDMB-BINACA, methyl 2-[1-(4-fluorobutyl)-1H-indazole-3-carbonyl]amino-3,3-dimethylbutanoate]",,,,,2.89E+09,14,4,100,75
COC(=O)[C@@H](NC(=O)c1n[nH]c2ccccc12)C(C)(C)C [MB4],+,–,+,–,7.45E+06,,,,
